Source: patent US10172951B2, “Dendrimer based nanodevices for therapeutic and imaging purposes” (priority 2009, dated 2019)
Numbered stars: 1 amine (or outer) side, 2 acyl side, 3 side chain; on linkers, the order of the positions; unused ones are H or OH. Square brackets hold non-standard residues; d marks the D form. Peptide text beside a SMILES is read from it. γGlu = O=C(O)[C@H](CCC(=O)[*:2])N[*:1]

Assays:
[1] = Stability of fluorophore-dendrimer conjugates in PBS (HPLC); assay type: physicochemical; conditions: PBS (pH 7.4), after 72 hours
Source text: The FITC-labeled compound (G4-PAMAM-O-GABA-NH-FITC) was purified by dialysis (membrane cutoff 1000 Da) against DMSO in dark by replacing DMSO, to remove un-reacted compounds. Purity of G4-PAMAM-O-GABA-NH-FITC conjugate was confirmed by HPLC using fluorescent detector (λex=495 nm/λem=521 nm).
G4-PAMAM-O-GABA-NH2 dendrimer was reacted with the Alexa 488 carboxylic acid succinimidyl ester (Scheme-6). The N-succinimidyl activated ester of Alexa 488 couples to the terminal primary amines to yield amide-linked G4-PAMAM-O-GABA-Alexa conjugate. The formation of conjugate was confirmed by HPLC (FIG. 89) using florescent detector (λex=495 nm/λem=521 nm). […] The absence of any other peak in chromatogram after dialysis of product confirms the absence of free alexa. […] The dendrimer alexa conjugate was prepared for enhanced histological visualization of samples as confocal imaging causes quenching and also to match with the intensities of other alexa conjugated secondary antibodies.

[2] = Dynamic light scattering size; assay type: physicochemical; conditions: PBS pH 7.4, 37° C.
Protocol: Dynamic light scattering (DLS) analyses were performed using a Malvern Instruments Zetasizer Nano ZEN3600 instrument (Westborough, Mass.) with reproducibility being verified by collection and comparison of sequential measurements. G4-PAMAM-O-GABA-NH-FITC and G4-PAMAM-O-GABA-NH-Alexa conjugate samples were prepared using PBS pH=7.4. DLS measurements were performed at a 90° scattering angle at 37° C. Z-average sizes of three sequential measurements were collected and analyzed.

[3] = Solubility in PBS/H2O; assay type: physicochemical
[4] = system: neuroinflammation in newborn rabbit model of cerebral palsy; assay: In vivo efficacy in newborn rabbit model of cerebral palsy (maternal endotoxin)
Protocol: New Zealand White rabbits (CoVance Research Products Inc., Kalamazoo, Mich.) with timed pregnancies confirmed with breeders (having a history of delivering 7-11 kits per litter) underwent laparotomy under general anesthesia (2-3% isoflurane by mask) on gestational day 28 (E28, term pregnancy is 31-32 days). 1 mL of saline for the control group (n=6) or 1 mL of saline containing 20 μg/kg of LPS (Escherichia coli serotype O127: B8 from Sigma-Aldrich, St Louis, Mo.) for the endotoxin group (n=6), was equally divided and injected into the uterine wall using a 27 gauge needle between the fetuses taking care not to enter the amniotic sac. This ensured that all the kits were exposed to the same amount of endotoxin. 0.5% NaHCO3 was infused at end of surgery and additional dose NaHCO3 was given at 2 hour after surgery according blood gas.
The following animal groups were enrolled and used for this example: • Group 1: Pups exposed to 20μ/kg E. Coli LPS in utero treated with saline I.V. (200 ul), Observe for 5 days (N=5-7) • Group 2: Pups exposed to 20μ/kg E. Coli LPS in utero treated with NAC I.V. (200 ul), single dose 10 mg/kg. Observe for 5 days (N=5-7) • Group 3: Pups exposed to 20μ/kg E. Coli LPS in utero treated with NAC I.V. (200 ul), single dose 100 mg/kg. Observe for 5 days (N=5-7) • Group 4: Pups exposed to 20μ/kg E. Coli LPS in utero treated with G4-PAMAM-S—S-NAC I.V (200 ul), single dose 1 mg/kg (based on preliminary data). […]
All live postnatal day 1 (PND1) control and endotoxin kits from four consecutive litters in each group were tested to reduce the risk of selection bias. The rabbit kits were assessed and scored for behavioral testing, as described by Derrick et al. Briefly, the kits were videotaped and scored on a scale of 0 (worst) to 3 (best) by two blinded observers for (1) posture (ability to maintain prone posture), (2) righting reflex (ability to right itself from supine to prone position for 10 attempts), (3) activity and locomotion on a flat surface (assessed by grading the quality, intensity, and duration of spontaneous movement of the head and front and back legs), (4) ability to move in a straight line and in circles, (5) coordination of suck and swallow assessed by feeding the rabbit kits artificially with formula from a syringe with a dropper, and (6) ability to move head during feeding (scored from 0-3 in which 0 is no movement of head and 3 is forceful movement of head and body). The tone on passive flexion and extension was assessed using the scoring based on the Ashworth scale, as described by Derrick et al, in which 0 indicated no increase in tone and 4 indicated the limb was rigid in flexion or extension. […]
secondary to maternal endotoxin administration were treated with a single dose of either PBS, NAC 100mg/kg, D-NAC 1 mg/kg or 10mg/kg, or dendrimer alone on day 1of life (31 days post-conception). […] Animals were video-taped for 10 minutes and were scored by two observers in a blinded manner. Scores were based on the maximum number of steps taken without falls (scored from 0-4) and number of hops without falls (scored from 0-4) in one minute of continuous activity. […]

[5] = In vitro NAC release from 6-Arm and 8-Arm PEG-S-S-NAC conjugates in PBS with GSH; assay type: physicochemical; conditions: intracellular GSH concentration (2 and 10 mM), within 2 hours
Protocol: The in vitro release of NAC from the 6-Arm-PEG-S—S-NAC and 8-Arm-PEG-S—S-NAC conjugates was performed in PBS (pH=7.4) at 37° C. Appropriate amounts of PEG-S—S-NAC conjugate were dissolved in release media (PBS buffered) to form a solution of 1 mg/ml into eppendorf tube and GSH was added to the conjugates to form 10 mM, 2 mM, or 2 μM concentrations and to initiate the release of NAC. All samples were run as triplicates for statistical analysis. As control samples, conjugates were analyzed in PBS buffered media in the absence of reducing agents. The solutions were kept at 37° C. and stirred continuously. At predetermined time intervals, 30 μL of samples were withdrawn and immediately analyzed release of NAC and GS-NAC with RP-HPLC and the concentrations of analytes were determined by using appropriate calibrations prepared under same conditions.

[6] = system: BV-2 cells; assay: TNF-α release assay (ELISA), PEG-NAC conjugates; assay type: cell-based, mouse; conditions: 5 mM
Protocol: (A) BV-2 cells (passage 22) were co-treated with 100 ng/mL of LPS and the indicated concentration of NAC, 6-Arm-PEG-S—S-NAC conjugate (1) and its correspond 6-Arm-PEG-SH for 72 hours (B) BV-2 cells were co-treated with 100 ng/mL of LPS and the indicated concentration of NAC, 8-Arm-PEG-S—S-NAC conjugate (3) and its correspond PEG for 72 hours. Three samples were in each group. TNF-α in culture medium was measured using mouse TNF-α ELISA Kit.
The procedure for cell culture and drug treatment was the same as described in an earlier example. TNF-α secretion was measured using an ELISA Kit according to the manufacturer's instruction. In brief, 50 μL of supernatant from each sample was added in 96-well ELISA plates. Biotinylated antibody reagent was applied to each well and incubated the plate at room temperature for 2 hours. After washing the plate with PBS-Tween 20, diluted streptavidin-HRP was added, and the plate was incubated at room temperature for 30 min. After washing the plate, premixed TMB substrate solution was added. The plate was developed in the dark for 30 min, and read at 450 nm using a microplate reader. The concentration of TNF-α was calculated using murine rTNF-α as standard.

[7] = system: microglial cells; assay: Toxicity of PEG-NAC conjugates to microglial cells; assay type: cell-based; conditions: 0.008-0.8 mM
[8] = Inhibition of GSH depletion by PEG-NAC conjugates; assay type: cell-based; conditions: equimolar NAC 0.5 mM

Row | Molecule | NAC released [5] [%] | inhibition of TNF-α production [6] [%] | toxicity to the microglial cells [7] | inhibition of GSH depletion versus free NAC [8] | other results
1 | G4-PAMAM-O-GABA-NH-Alexa-488 | – | – | – | – | stability of the conjugate [1]: alexa was not released from the conjugate; size (DLS) [2]: 5.6 nm
2 | CC(=O)N[C@@H](CCC(=O)N[C@@H](CS)C(=O)NCC(=O)O)C(=O)O [GS-S-NAC, N-Acetyl-glutathione] (Ac-[γGlu]-Cys-Gly-OH) | – | – | – | – | Solubility in PBS/H2O [3]: Soluble
3 | PAMAM-O-GABA-NH—CO-Ethyl-S—S-NAC [Dendrimer-NAC] | – | – | – | – | suppression of NF-κB ([4]; 1 mg/kg single dose on PND-1, hippocampus PND 5): as effective as 100 mg/kg of NAC alone; suppression of IL-6 relative to free drug ([4]; hippocampus): 10-100 times; suppression of TNF-alpha mRNA expression relative to free drug ([4]; hippocampus, 5 days of age): 10-100 times; effect on myelination compared to the drug alone ([4]; rabbit, in vivo): increased myelination; efficacy relative to free NAC ([4]; single i.v. administration): ≤ 100 times
4 | 6 Arm-PEG-S—S-NAC Conjugate [6-arm-PEG-S—S-NAC] | 74 | 70 | nontoxic | more efficient | –
5 | 8 Arm-PEG-S—S-NAC Conjugate [8-arm-PEG-S—S-NAC] | 74 | 70 | nontoxic | more efficient | –
